The experiment in a line: phenyl-p-benzoquinone induced writhing test in mice (mouse antiphenylquinone writhing test), oral. The format is in vivo, mouse (male CF1). The settings on record: for % MICE BLOCKED: oral. The source says:
The phenyl-p-benzoquinone induced writhing test in mice [H. Blumberg et al., Proc. Soc. […] The method simply consists of reading the % ED50 DOSE for each dose ratio on the best fit regression analysis curve from the mouse isobologram, multiplying each component by its effective species dose, and then forming the ratio of the amount of nalbuphine to 4,5-bis(4-methoxyphenyl)-2-(trifluoromethylsulfonyl)-1 H-imidazole. […] [E. W. Pelikan, The Pharmacologist, 1, 73 (1959). ]
Male CF1 mice obtained from Charles River Breeding Laboratories, fasted for 16-22 hours and weighing 18-22 g at the time of testing are used throughout. All mice are dosed sequentially by the oral route with suspensions of 4,5-bis(4-methoxyphenyl)-2-(trifluoromethylsulfonyl)-1H-imidazole and/or of nalbuphine hydrochloride. A dosing volume of 10 ml/kg is used for each sequential solution or suspension. […] All doses are coded and the test is performed under a code not known to the observer.
A stock suspension of 4,5-bis(4-methoxyphenyl)-2-trifluoromethylsulfonyl)-1H-imidazole is prepared by mixing 8.0 mg 4,5-bis(4-methoxyphenyl)-2-(trifluoromethylsulfonyl)-1H-imidazole with 80 ml of an aqueous vehicle containing 2% by volume of Tween 80®, a pharmacological dispersant manufactured by Fisher Scientific Company and containing 100% polysorbate 80, and 1% by weight of Methocel® MC powder, a suspending agent manufactured by DOW Chemical Company and containing 100% methylcellulose, in distilled water. The mixture is sonicated at 150 watts for 1-2 minutes with an ultrasound system, then shaken for two hours at 280 oscillations/minute with 15-20 gm of glass beads. The resultant suspension contains 0.1 mg/ml of 4,5-bis(4-methoxyphenyl)-2-(trifluoromethylsulfonyl)-1H-imidazole; all dosing suspensions are prepared by dilution of the stock suspension with the Methocel®/Tween 80® vehicle; the vehicle control is Methocel®/Tween 80®. All suspensions are prepared fresh daily.
Stock solutions of nalbuphine HCl are prepared by dissolving dry nalbuphine hydrochloride powder with distilled water. All dosing solutions are prepared by dilution of the stock solution with distilled water; the vehicle control is distilled water.
As indicated above, the standard procedure based upon the prevention of phenyl-p-benzoquinone induced writhing in mice is utilized to detect and quantify the analgetic activity of compositions containing nalbuphine and 4,5-bis(4-methoxyphenyl)-2-(trifluoromethylsulfonyl)-1H-imidazole.
Mice, intubated with various doses of nalbuphine hydrochloride, 4,5-bis(4-methoxyphenyl)-2-(trifluoromethylsulfonyl)-1H-imidazole, combined doses of nalbuphine hydrochloride and 4,5-bis(4-methoxyphenyl)-2-(trifluoromethylsulfonyl)-1H-imidazole, or vehicle, are injected intraperitoneally with a challenge dose of phenyl-p-benzoquinone 5 minutes prior to the designated observation period. The phenyl-p-benzoquinone is prepared as an 0.1 mg/ml solution in 5% by volume of ethanol in water; the writhing dose is 1.25 mg/kg injected in a volume of 0.25 ml/20 g. For scoring purposes a "writhe" is indicated by whole body stretching or contraction of the abdomen; mice are observed 10 minutes for the presence or absence of writhing beginning 5 minutes after receiving the phenyl-p-benzoquinone dose. Each mouse is used only once, then discarded. […] This dosage as described herein is referred to as the ED50. All ED50 values and their 95% confidence limits are determined numerically by the computer-assisted methods of Finney. [D. J. Finney, "Probit Analysis," Third Edition, Cambridge University Press, Cambridge, England, 1971].

Each structure is given as a SMILES string.

Regarding `COc1ccc(-c2nc(S(=O)(=O)C(F)(F)F)[nH]c2-c2ccc(OC)cc2)cc1` [CII, 4,5-bis(4-methoxyphenyl)-2-(trifluoromethylsulfonyl)-1H-imidazole], the “% MICE BLOCKED” value was found to be 10.0% (40 min, CII 0.063 mg/kg); 46.7% (40 min, CII 0.125 mg/kg); 73.3% (40 min, CII 0.250 mg/kg); 93.3% (40 min, CII 0.500 mg/kg); 13.3% (80 min, CII 0.03 mg/kg); 26.7% (80 min, CII 0.06 mg/kg). The “% MICE BLOCKED” value is listed as 56.7% (80 min, CII 0.12 mg/kg) and 63.3% (80 min, CII 0.24 mg/kg). Also, the 50% effective dose (ED50) at 40 min, CII (40 min post oral dosing, CII part of the ED50 dose, N = 30 mice/dose) stood at 0.161 mg/kg. Further, where the note is “80 min post oral dosing, CII part of the ED50 dose, N = 30 mice/dose”, the median effective dose (ED50) at 80 min, CII is listed as 0.135 mg/kg.
`Oc1ccc2c3c1O[C@H]1[C@@H](O)CC[C@@]4(O)[C@@H](C2)N(CC2CCC2)CC[C@]314` [Nalbuphine, (-)-17-(cyclobutylmethyl)-4,5α-epoxymorphinan-3,6α,14-triol]: the “% MICE BLOCKED” value is, setting by setting: (40 min, nalbuphine HCl 5.85 mg/kg) 16.7%; (40 min, nalbuphine HCl 11.7 mg/kg) 30.0%; (40 min, nalbuphine HCl 23.4 mg/kg) 43.3%; (40 min, nalbuphine HCl 46.8 mg/kg) 70.0%; (40 min, nalbuphine HCl 93.6 mg/kg) 83.3%; (80 min, nalbuphine HCl 24.5 mg/kg) 6.7%. Besides, the “% MICE BLOCKED” value stood at 26.7% (80 min, nalbuphine HCl 49 mg/kg); 40.0% (80 min, nalbuphine HCl 98 mg/kg); 56.7% (80 min, nalbuphine HCl 196 mg/kg); 83.3% (80 min, nalbuphine HCl 392 mg/kg). The “ED50 at 40 min, nalbuphine HCl” value (40 min post oral dosing, nalbuphine HCl part of the ED50 dose, N = 30 mice/dose) is given as 28.9 mg/kg. For the same compound, the “ED50 at 80 min, nalbuphine HCl” value (80 min post oral dosing, nalbuphine HCl part of the ED50 dose, N = 30 mice/dose) worked out at 141 mg/kg.
